Data published in ChEMBL document CHEMBL3885881, “DrugMatrix”.

Species: Rattus norvegicus
Assay: DrugMatrix - Regimen: Daily Repeat
Assay type: toxicity, organism-based, Sprague-Dawley
Parameters: regimen Daily Repeat, gender Male, age 6-8 weeks
Conditions: in vivo, iv, vehicle 100 % SALINE; for ABSOLUTE BASOPHIL / ABSOLUTE EOSINOPHIL / ABSOLUTE LYMPHOCYTE / ABSOLUTE MONOCYTE / ABSOLUTE SEGMENTED NEUTROPHIL / BASOPHIL / EOSINOPHIL / ERYTHROCYTE COUNT / HEMATOCRIT / HEMOGLOBIN / LEUKOCYTE COUNT / LYMPHOCYTE / MEAN CORPUSCULAR HEMOGLOBIN / MEAN CORPUSCULAR HEMOGLOBIN CONCENTRATION / MEAN CORPUSCULAR VOLUME / MONOCYTE / NEUTROPHIL / NUCLEATED RED BLOOD CELLS / PLATELET COUNT: tissue Blood; for ALANINE AMINOTRANSFERASE / ALBUMIN / ALKALINE PHOSPHATASE / ASPARTATE AMINOTRANSFERASE / BLOOD UREA NITROGEN / CARBON DIOXIDE / CHLORIDE / CHOLESTEROL / CREATINE PHOSPHOKINASE / CREATININE / GLUCOSE / LACTATE DEHYDROGENASE / LIPASE / PHOSPHORUS / POTASSIUM / SODIUM / TOTAL BILIRUBIN / TOTAL PROTEIN / URIC ACID: tissue Plasma
[1] = 200 mg/kg, 72 h, dose level Low, time 3 day
[2] = 200 mg/kg, 120 h, dose level Low, time 5 day
[3] = 671 mg/kg, 72 h, dose level High, time 3 day
[4] = 671 mg/kg, 120 h, dose level High, time 5 day

## CC1(C)[C@H](C(=O)O)N2C(=O)C[C@H]2S1(=O)=O [SULBACTAM]
[1]
  ABSOLUTE BASOPHIL: 0 CELLS/uL
  ABSOLUTE EOSINOPHIL: 43 CELLS/uL
  ABSOLUTE LYMPHOCYTE: 14561.67 CELLS/uL
  ABSOLUTE MONOCYTE: 271 CELLS/uL
  ABSOLUTE SEGMENTED NEUTROPHIL: 824.33 CELLS/uL
  BASOPHIL: 0%
  EOSINOPHIL: 0.33%
  ERYTHROCYTE COUNT: 5.6 x10E6/uL
  HEMATOCRIT: 36.53%
  HEMOGLOBIN: 13.5 G/DL
  LEUKOCYTE COUNT: 15.7 x10E3/uL
  LYMPHOCYTE: 93%
  MEAN CORPUSCULAR HEMOGLOBIN: 24.1 pg
  MEAN CORPUSCULAR HEMOGLOBIN CONCENTRATION: 36.97 G/DL
  MEAN CORPUSCULAR VOLUME: 65.23 fL
  MONOCYTE: 1.67%
  NEUTROPHIL: 5%
  NUCLEATED RED BLOOD CELLS: 0 /100WBC
  PLATELET COUNT: 1408.33 x10E3/uL
  ALANINE AMINOTRANSFERASE: 53.67 u/L
  ALBUMIN: 4.27 G/DL
  ALKALINE PHOSPHATASE: 448.33 u/L
  ASPARTATE AMINOTRANSFERASE: 100 u/L
  BLOOD UREA NITROGEN: 15.67 mg/dL
  CARBON DIOXIDE: 25 mmol/L
  CHLORIDE: 104.33 MEQ/L
  CHOLESTEROL: 75.67 mg/dL
  CREATINE PHOSPHOKINASE: 386 u/L
  CREATININE: 0.21 mg/dL
  GLUCOSE: 148.33 mg/dL
  LACTATE DEHYDROGENASE: 566.33 u/L
  LIPASE: 9 u/L
  PHOSPHORUS: 14.37 mg/dL
  POTASSIUM: 6.91 MEQ/L
  SODIUM: 147.5 MEQ/L
  TOTAL BILIRUBIN: 0.2 mg/dL
  TOTAL PROTEIN: 5.87 G/DL
  URIC ACID: 2.33 mg/dL
[2]
  ABSOLUTE BASOPHIL: 0 CELLS/uL
  ABSOLUTE EOSINOPHIL: 0 CELLS/uL
  ABSOLUTE LYMPHOCYTE: 14657 CELLS/uL
  ABSOLUTE MONOCYTE: 318 CELLS/uL
  ABSOLUTE SEGMENTED NEUTROPHIL: 925 CELLS/uL
  BASOPHIL: 0%
  EOSINOPHIL: 0%
  ERYTHROCYTE COUNT: 5.84 x10E6/uL
  HEMATOCRIT: 37.7%
  HEMOGLOBIN: 14.03 G/DL
  LEUKOCYTE COUNT: 15.9 x10E3/uL
  LYMPHOCYTE: 92%
  MEAN CORPUSCULAR HEMOGLOBIN: 24.03 pg
  MEAN CORPUSCULAR HEMOGLOBIN CONCENTRATION: 37.23 G/DL
  MEAN CORPUSCULAR VOLUME: 64.47 fL
  MONOCYTE: 2%
  NEUTROPHIL: 6%
  NUCLEATED RED BLOOD CELLS: 0 /100WBC
  PLATELET COUNT: 1395.33 x10E3/uL
  ALANINE AMINOTRANSFERASE: 49.67 u/L
  ALBUMIN: 4.37 G/DL
  ALKALINE PHOSPHATASE: 374.33 u/L
  ASPARTATE AMINOTRANSFERASE: 126 u/L
  BLOOD UREA NITROGEN: 17 mg/dL
  CARBON DIOXIDE: 23 mmol/L
  CHLORIDE: 109 MEQ/L
  CHOLESTEROL: 81.67 mg/dL
  CREATINE PHOSPHOKINASE: 1350 u/L
  CREATININE: 0.18 mg/dL
  GLUCOSE: 184.33 mg/dL
  LACTATE DEHYDROGENASE: 397.67 u/L
  LIPASE: 9.67 u/L
  PHOSPHORUS: 15.07 mg/dL
  POTASSIUM: 6.82 MEQ/L
  SODIUM: 147.1 MEQ/L
  TOTAL BILIRUBIN: 0.17 mg/dL
  TOTAL PROTEIN: 6.2 G/DL
  URIC ACID: 2.3 mg/dL
[3]
  ABSOLUTE BASOPHIL: 0 CELLS/uL
  ABSOLUTE EOSINOPHIL: 155 CELLS/uL
  ABSOLUTE LYMPHOCYTE: 10321.67 CELLS/uL
  ABSOLUTE MONOCYTE: 230 CELLS/uL
  ABSOLUTE SEGMENTED NEUTROPHIL: 793.33 CELLS/uL
  BASOPHIL: 0%
  EOSINOPHIL: 1%
  ERYTHROCYTE COUNT: 5.18 x10E6/uL
  HEMATOCRIT: 33.43%
  HEMOGLOBIN: 12.83 G/DL
  LEUKOCYTE COUNT: 11.5 x10E3/uL
  LYMPHOCYTE: 90.33%
  MEAN CORPUSCULAR HEMOGLOBIN: 24.77 pg
  MEAN CORPUSCULAR HEMOGLOBIN CONCENTRATION: 38.4 G/DL
  MEAN CORPUSCULAR VOLUME: 64.63 fL
  MONOCYTE: 2%
  NEUTROPHIL: 6.67%
  NUCLEATED RED BLOOD CELLS: 0 /100WBC
  PLATELET COUNT: 1400 x10E3/uL
  ALANINE AMINOTRANSFERASE: 58 u/L
  ALBUMIN: 4.2 G/DL
  ALKALINE PHOSPHATASE: 390 u/L
  ASPARTATE AMINOTRANSFERASE: 79.67 u/L
  BLOOD UREA NITROGEN: 16.67 mg/dL
  CARBON DIOXIDE: 23.67 mmol/L
  CHLORIDE: 105 MEQ/L
  CHOLESTEROL: 91.67 mg/dL
  CREATINE PHOSPHOKINASE: 323 u/L
  CREATININE: 0.17 mg/dL
  GLUCOSE: 164.67 mg/dL
  LACTATE DEHYDROGENASE: 190.67 u/L
  LIPASE: 9.67 u/L
  PHOSPHORUS: 13.3 mg/dL
  POTASSIUM: 6.52 MEQ/L
  SODIUM: 144.27 MEQ/L
  TOTAL BILIRUBIN: 0.2 mg/dL
  TOTAL PROTEIN: 5.83 G/DL
  URIC ACID: 1.6 mg/dL
[4]
  ABSOLUTE BASOPHIL: 0 CELLS/uL
  ABSOLUTE EOSINOPHIL: 174 CELLS/uL
  ABSOLUTE LYMPHOCYTE: 13614.33 CELLS/uL
  ABSOLUTE MONOCYTE: 314 CELLS/uL
  ABSOLUTE SEGMENTED NEUTROPHIL: 1597.67 CELLS/uL
  BASOPHIL: 0%
  EOSINOPHIL: 1%
  ERYTHROCYTE COUNT: 5.71 x10E6/uL
  HEMATOCRIT: 36.2%
  HEMOGLOBIN: 13.7 G/DL
  LEUKOCYTE COUNT: 15.7 x10E3/uL
  LYMPHOCYTE: 86.67%
  MEAN CORPUSCULAR HEMOGLOBIN: 24 pg
  MEAN CORPUSCULAR HEMOGLOBIN CONCENTRATION: 37.87 G/DL
  MEAN CORPUSCULAR VOLUME: 63.33 fL
  MONOCYTE: 2%
  NEUTROPHIL: 10.33%
  NUCLEATED RED BLOOD CELLS: 0 /100WBC
  PLATELET COUNT: 1356 x10E3/uL
  ALANINE AMINOTRANSFERASE: 44.33 u/L
  ALBUMIN: 4.33 G/DL
  ALKALINE PHOSPHATASE: 277 u/L
  ASPARTATE AMINOTRANSFERASE: 78 u/L
  BLOOD UREA NITROGEN: 18.33 mg/dL
  CARBON DIOXIDE: 26.67 mmol/L
  CHLORIDE: 108.33 MEQ/L
  CHOLESTEROL: 75.67 mg/dL
  CREATINE PHOSPHOKINASE: 555.67 u/L
  CREATININE: 0.17 mg/dL
  GLUCOSE: 164.67 mg/dL
  LACTATE DEHYDROGENASE: 144 u/L
  LIPASE: 9 u/L
  PHOSPHORUS: 13.8 mg/dL
  POTASSIUM: 6.54 MEQ/L
  SODIUM: 148.8 MEQ/L
  TOTAL BILIRUBIN: 0.17 mg/dL
  TOTAL PROTEIN: 6.43 G/DL
  URIC ACID: 1.67 mg/dL
